For 18 compounds, IC50 results are on record in US20240383875A1, “Benzimidazole Pyridine Derivatives” (Hoffmann-La Roche Inc., priority 2022, published 2024).

What all share (type): biochemical
One assay has as its target SIK3 (Homo sapiens, UniProt Q9Y2K2). The assay can be described thus: Enzymatic activity assay SIK3, RapidFire mass spectrometry (phosphorylation of CHK-peptide). Particulars: RapidFire MS, inhibition of SIK3; read-out: SIK3 RF IC50. In short, it runs like this:
(§1)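 Compounds (12-point, 3-fold, generally 30 μM to 170 pM) were pre-incubated 30 min at ambient temperature with SIK1 (5 nM), SIK2 (0.5 nM) or SIK3 (1.5 nM) in HEPES pH 7.0/magnesium acetate buffer. CHK-peptide (10 μM solution) and ATP (100 μM solution) were then added for 45 min before formic acid quench.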

Another assay addresses SIK1 (Homo sapiens, UniProt P57059). Kind of assay: Enzymatic activity assay SIK1, RapidFire mass spectrometry (phosphorylation of CHK-peptide). As to conditions: RapidFire MS, inhibition of SIK1; read-out: SIK1 RF IC50. Summed up: as §1
A further assay deals with SIK2 (Homo sapiens, UniProt Q9H0K1). Kind of assay: Enzymatic activity assay SIK2, RapidFire mass spectrometry (phosphorylation of CHK-peptide). Particulars: RapidFire MS, inhibition of SIK2; read-out: SIK2 RF IC50. Summed up:
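SIK2 (0.5 nM) in pH 7.0 HEPES buffer with 10 mM Mg acetate phosphorylates CHK-peptide (10 μM solution) with 100 μM ATP solution, 45 min ambient, then formic acid quench.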

Structures are written as SMILES.

Chain of SIK2 (Q9H0K1 whole entry): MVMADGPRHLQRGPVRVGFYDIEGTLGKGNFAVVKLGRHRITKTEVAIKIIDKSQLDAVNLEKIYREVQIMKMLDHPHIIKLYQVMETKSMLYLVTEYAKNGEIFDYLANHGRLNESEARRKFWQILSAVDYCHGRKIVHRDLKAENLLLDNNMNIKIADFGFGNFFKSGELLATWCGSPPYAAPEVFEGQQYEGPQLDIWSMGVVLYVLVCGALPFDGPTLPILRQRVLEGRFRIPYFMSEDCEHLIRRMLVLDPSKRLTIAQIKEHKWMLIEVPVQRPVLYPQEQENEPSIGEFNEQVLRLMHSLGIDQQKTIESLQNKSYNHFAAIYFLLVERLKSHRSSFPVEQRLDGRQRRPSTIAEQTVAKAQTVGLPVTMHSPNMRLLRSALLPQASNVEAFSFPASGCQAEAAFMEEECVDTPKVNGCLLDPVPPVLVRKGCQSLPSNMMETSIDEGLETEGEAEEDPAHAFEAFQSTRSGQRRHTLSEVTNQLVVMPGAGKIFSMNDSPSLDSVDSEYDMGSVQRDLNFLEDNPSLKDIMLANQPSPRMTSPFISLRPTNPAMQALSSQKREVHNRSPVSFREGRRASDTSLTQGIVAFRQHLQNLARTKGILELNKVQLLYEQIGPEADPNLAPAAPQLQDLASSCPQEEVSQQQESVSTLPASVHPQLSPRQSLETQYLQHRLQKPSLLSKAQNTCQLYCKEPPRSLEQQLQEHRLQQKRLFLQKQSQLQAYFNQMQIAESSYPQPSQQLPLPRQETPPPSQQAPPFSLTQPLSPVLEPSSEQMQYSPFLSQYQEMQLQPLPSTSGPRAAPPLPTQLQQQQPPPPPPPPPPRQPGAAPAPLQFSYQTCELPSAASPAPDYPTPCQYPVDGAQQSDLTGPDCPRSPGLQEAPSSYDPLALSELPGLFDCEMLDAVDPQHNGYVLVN
Chain of SIK3 (Q9Y2K2 whole entry): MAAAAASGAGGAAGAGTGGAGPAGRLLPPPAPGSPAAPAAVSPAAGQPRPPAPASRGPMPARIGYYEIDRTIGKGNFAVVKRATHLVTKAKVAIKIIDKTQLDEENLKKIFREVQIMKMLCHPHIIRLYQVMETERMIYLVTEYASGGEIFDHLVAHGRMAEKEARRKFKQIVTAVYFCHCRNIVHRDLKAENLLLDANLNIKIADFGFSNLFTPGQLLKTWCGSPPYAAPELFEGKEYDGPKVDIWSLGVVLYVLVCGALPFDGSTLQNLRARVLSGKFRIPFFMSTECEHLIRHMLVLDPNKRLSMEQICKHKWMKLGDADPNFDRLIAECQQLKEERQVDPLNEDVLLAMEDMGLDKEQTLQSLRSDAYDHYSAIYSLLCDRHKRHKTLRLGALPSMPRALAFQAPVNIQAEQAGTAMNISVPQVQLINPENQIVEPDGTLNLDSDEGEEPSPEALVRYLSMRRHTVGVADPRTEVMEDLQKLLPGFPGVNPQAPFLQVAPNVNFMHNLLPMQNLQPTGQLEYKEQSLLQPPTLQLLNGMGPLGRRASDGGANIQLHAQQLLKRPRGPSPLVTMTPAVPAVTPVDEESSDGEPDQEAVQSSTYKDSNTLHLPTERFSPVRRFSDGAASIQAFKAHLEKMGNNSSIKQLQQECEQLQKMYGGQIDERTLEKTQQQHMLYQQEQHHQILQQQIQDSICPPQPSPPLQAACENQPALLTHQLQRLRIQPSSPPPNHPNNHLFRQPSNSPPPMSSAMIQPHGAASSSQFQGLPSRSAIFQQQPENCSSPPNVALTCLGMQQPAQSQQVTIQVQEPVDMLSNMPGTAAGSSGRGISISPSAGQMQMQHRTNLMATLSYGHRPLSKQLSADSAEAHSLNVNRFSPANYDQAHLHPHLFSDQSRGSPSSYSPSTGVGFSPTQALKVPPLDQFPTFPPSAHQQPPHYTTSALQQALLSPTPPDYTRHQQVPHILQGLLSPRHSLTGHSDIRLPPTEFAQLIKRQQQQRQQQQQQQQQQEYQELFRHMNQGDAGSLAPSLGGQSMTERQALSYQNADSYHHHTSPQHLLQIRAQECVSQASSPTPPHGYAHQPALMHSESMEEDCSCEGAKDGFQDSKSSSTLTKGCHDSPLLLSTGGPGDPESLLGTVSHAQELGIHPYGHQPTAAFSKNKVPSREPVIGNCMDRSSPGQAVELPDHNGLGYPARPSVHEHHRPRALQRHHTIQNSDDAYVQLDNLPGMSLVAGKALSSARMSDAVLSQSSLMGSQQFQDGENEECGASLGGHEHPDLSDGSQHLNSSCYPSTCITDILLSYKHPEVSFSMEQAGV
Chain of SIK1 (P57059 whole entry): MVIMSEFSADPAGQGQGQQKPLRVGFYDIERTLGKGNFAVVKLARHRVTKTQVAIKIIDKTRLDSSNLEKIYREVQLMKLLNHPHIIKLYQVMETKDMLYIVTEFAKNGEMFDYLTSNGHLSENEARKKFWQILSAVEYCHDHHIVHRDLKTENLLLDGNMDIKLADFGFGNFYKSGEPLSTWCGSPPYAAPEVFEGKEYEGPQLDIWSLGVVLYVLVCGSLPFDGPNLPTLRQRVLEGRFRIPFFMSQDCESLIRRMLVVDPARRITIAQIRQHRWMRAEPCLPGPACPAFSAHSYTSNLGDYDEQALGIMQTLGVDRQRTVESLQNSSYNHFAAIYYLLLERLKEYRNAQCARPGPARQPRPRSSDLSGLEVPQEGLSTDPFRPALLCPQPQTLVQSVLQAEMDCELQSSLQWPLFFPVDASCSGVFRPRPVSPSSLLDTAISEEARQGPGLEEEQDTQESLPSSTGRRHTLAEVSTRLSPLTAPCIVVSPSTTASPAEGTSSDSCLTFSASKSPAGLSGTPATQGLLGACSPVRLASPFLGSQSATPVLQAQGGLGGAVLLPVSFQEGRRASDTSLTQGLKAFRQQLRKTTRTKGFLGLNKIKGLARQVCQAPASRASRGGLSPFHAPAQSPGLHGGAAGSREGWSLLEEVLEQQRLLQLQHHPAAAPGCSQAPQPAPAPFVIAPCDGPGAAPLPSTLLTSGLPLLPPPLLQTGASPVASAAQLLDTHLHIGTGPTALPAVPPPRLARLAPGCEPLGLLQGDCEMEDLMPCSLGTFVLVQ

Turning to `COc1cc2ncn(-c3ccc([C@@H](C)O)c(-c4ccn(C)c(=O)c4)n3)c2cc1OC` [Example 42, (R)-6-(5,6-Dimethoxy-1H-benzo[d]imidazol-1-yl)-3-(1-hydroxyethyl)-1′-methyl-[2,4′-bipyridin]-2′(1′H)-one], the values for the IC50 at SIK3, on SIK1 and at SIK2 were 2060 nM, 1300 nM and 1040 nM, respectively.

As for `Cc1ccc(Nc2ccc3ncn(-c4ccc(C(C)O)c(-n5nc(C)cc5C)n4)c3c2)nn1` (stereo not drawn) [Example 107, 1-[2-(3,5-Dimethylpyrazol-1-yl)-6-[6-[(6-methylpyridazin-3-yl)amino]benzimidazol-1-yl]-3-pyridyl]ethanol; formic acid], the IC50 (as a rule, the point on the concentration scale where inhibition reaches its midpoint) at SIK3 was 3500 nM; at SIK1, 2610 nM; on SIK2, 1370 nM.

Take `Cc1ccc(Nc2ccc3c(c2)ncn3-c2ccc(C(C)O)c(-c3c(C)noc3C)n2)nn1` (stereo not drawn) [Example 159, 1-[2-(3,5-Dimethylisoxazol-4-yl)-6-[5-[(6-methylpyridazin-3-yl)amino]benzimidazol-1-yl]-3-pyridyl]ethanol]: the IC50 at SIK3 is 70.2 nM; on SIK1 it was 23800 nM; on SIK2, 306 nM.

As for `CCc1cc(C(F)F)nn1-c1nc(-n2cnc3ccc(Nc4ccc(C)nn4)cc32)ccc1C(C)O` (stereo not drawn) [Example 368, 1-[2-[3-(difluoromethyl)-5-ethyl-pyrazol-1-yl]-6-[6-[(6-methylpyridazin-3-yl)amino]benzimidazol-1-yl]-3-pyridyl]ethanol], the IC50 on SIK3 came out at 1100 nM; on SIK1 it was 106 nM; on SIK2, 77.1 nM.

On to `Cc1nnc(Nc2cc3ncn(-c4ccc(C(C)O)c(-n5nc(C#N)cc5C)n4)c3cc2F)o1` (stereo not drawn) [Example 377, 1-[6-[6-fluoro-5-[(5-methyl-1,3,4-oxadiazol-2-yl)amino]benzimidazol-1-yl]-3-(1-hydroxyethyl)-2-pyridyl]-5-methyl-pyrazole-3-carbonitrile], for which the results for the concentration for half-maximal inhibition (IC50) at SIK3, at SIK1 and on SIK2 were 43.2 nM, 47 nM and 31.5 nM, respectively.

`Cc1ccc(Nc2ccc3c(c2)ncn3-c2ccc(C(C)O)c(-c3cc(C(F)(F)F)nn3C)n2)nn1` (stereo not drawn) [Example 122, 1-[6-[5-[(6-Methylpyridazin-3-yl)amino]benzimidazol-1-yl]-2-[2-methyl-5-(trifluoromethyl)pyrazol-3-yl]-3-pyridyl]ethanol]: the IC50 turned out to be 6.9 nM on SIK3, 3460 nM at SIK1 and 33 nM on SIK2.

Turning to `Cc1cc(C#N)nn1-c1nc(-n2cnc3cc(N4CC[C@H](O)C4)ccc32)ccc1C(C)O` (stereo partly drawn) [Example 78, 1-[3-(1-hydroxyethyl)-6-[5-[(3S)-3-hydroxypyrrolidin-1-yl]benzimidazol-1-yl]-2-pyridyl]-5-methyl-pyrazole-3-carbonitrile; formic acid], the half-maximal inhibitory concentration (IC50) was found to be 20.4 nM at SIK3, 33 nM on SIK1 and 11.4 nM at SIK2.

Take `Cc1ccc(Nc2ccc3c(c2)ncn3-c2ccc(C(C)O)c(-n3nc(S(C)(=O)=O)cc3C)n2)nn1` (stereo not drawn) [Example 145, 1-[2-(5-Methyl-3-methylsulfonyl-pyrazol-1-yl)-6-[5-[(6-methylpyridazin-3-yl)amino]benzimidazol-1-yl]-3-pyridyl]ethanol]: the results for the IC50 on SIK3, at SIK1 and on SIK2 were 1.4 nM, 552 nM and 9 nM, respectively.

For the compound `COc1cc2ncn(-c3ccc(CO)c(N4CCCC4)n3)c2cc1OC` [Example 27, (6-(5,6-Dimethoxy-1H-benzo[d]imidazol-1-yl)-2-(pyrrolidin-1-yl)pyridin-3-yl)methanol], the values for the 50% inhibitory concentration (IC50) on SIK3, at SIK1 and on SIK2 were 761 nM, 535 nM and 473 nM, respectively.

For the compound `Cc1cc(C#N)nn1-c1nc(-n2cnc3ccc(N4CCC[C@H]4C#N)cc32)ccc1C(C)O` (stereo partly drawn) [Example 341, 1-[6-[6-[(2S)-2-cyanopyrrolidin-1-yl]benzimidazol-1-yl]-3-(1-hydroxyethyl)-2-pyridyl]-5-methyl-pyrazole-3-carbonitrile], the concentration for half-maximal inhibition (IC50) on SIK3 was found to be 124 nM; at SIK1 it was 14 nM; at SIK2, 15.1 nM.

Consider `Cc1ccc(Nc2ccc3c(c2)ncn3-c2ccc([C@@H](C)O)c(-n3nc(C(F)F)cc3C(F)F)n2)nn1` [Example 288, (1R)-1-[2-[3,5-bis(difluoromethyl)pyrazol-1-yl]-6-[5-[(6-methylpyridazin-3-yl)amino]benzimidazol-1-yl]-3-pyridyl]ethanol], for which the concentration for half-maximal inhibition (IC50) on SIK3 was found to be 5.8 nM; at SIK1 it was 1600 nM; at SIK2 it was 13.2 nM.

Regarding `Cc1ccc(Nc2ccc3c(c2)ncn3-c2ccc(C(C)O)c(-n3nc(C#N)cc3C(F)F)n2)nn1` (stereo not drawn) [Example 306, 5-(difluoromethyl)-1-[3-(1-hydroxyethyl)-6-[5-[(6-methylpyridazin-3-yl)amino]benzimidazol-1-yl]-2-pyridyl]pyrazole-3-carbonitrile], the IC50 at SIK3 turned out to be 0.7 nM; at SIK1 it was 208 nM; at SIK2, 1.6 nM.

`COc1cc2ncn(-c3ccc([C@@H](C)O)c(-c4cccc(C#N)c4)n3)c2cc1OC` [Example 38, (R)-3-(6-(5,6-Dimethoxy-1H-benzo[d]imidazol-1-yl)-3-(l-hydroxyethyl)pyridin-2-yl)benzonitrile]: the figures for the half-maximal inhibitory concentration (IC50) at SIK3, on SIK1 and at SIK2 were 259 nM, 158 nM and 58.4 nM, respectively.

For the compound `Cc1ccc(Nc2ccc3c(c2)ncn3-c2ccc([C@H](C)O)c(-c3cn(CC(F)(F)F)nc3C)n2)nn1` [Example 252, (1S)-1-[6-[5-[(6-Methylpyridazin-3-yl)amino]benzimidazol-1-yl]-2-[3-methyl-1-(2,2,2-trifluoroethyl)pyrazol-4-yl]-3-pyridyl]ethanol], the figures for the IC50 at SIK3, on SIK1 and on SIK2 were 80.4 nM, 5620 nM and 46.8 nM, respectively.

`Cc1ccc(Nc2ccc3c(c2)ncn3-c2ccc(C(C)O)c(-c3nn(CC(F)(F)F)cc3C)n2)nn1` (stereo not drawn) [Example 349, 1-[6-[5-[(6-methylpyridazin-3-yl)amino]benzimidazol-1-yl]-2-[4-methyl-1-(2,2,2-trifluoroethyl)pyrazol-3-yl]-3-pyridyl]ethanol]: the IC50 at SIK3 stood at 6.6 nM; at SIK1, 432 nM; at SIK2 it was 5.3 nM.

`Cc1ccc(Nc2ccc3c(c2)ncn3-c2ccc(C(C)O)c(-c3cnn(CC4CC4)c3C)n2)nn1` (stereo not drawn) [Example 272, 1-[2-[1-(Cyclopropylmethyl)-5-methyl-pyrazol-4-yl]-6-[5-[(6-methylpyridazin-3-yl)amino]benzimidazol-1-yl]-3-pyridyl]ethanol; formic acid]: the 50% inhibitory concentration (IC50) stood at 1.2 nM on SIK3, 193 nM at SIK1 and 2.4 nM at SIK2.

On to `Cc1cc(S(C)(=O)=O)c(Nc2ccc3c(c2)ncn3-c2ccc(C(C)O)c(-n3nc(C#N)cc3C)n2)nn1` (stereo not drawn) [Example 292, 1-[3-(1-hydroxyethyl)-6-[5-[(6-methyl-4-methylsulfonyl-pyridazin-3-yl)amino]benzimidazol-1-yl]-2-pyridyl]-5-methyl-pyrazole-3-carbonitrile], for which the IC50 came to 24.2 nM at SIK3, 617 nM at SIK1 and 34.2 nM on SIK2.

`COc1cc2ncn(-c3ccc(CO)c(-c4cccc(Cl)c4F)n3)c2cc1OC` [Example 15, (2-(3-Chloro-2-fluorophenyl)-6-(5,6-dimethoxy-1H-benzo[d]imidazol-1-yl)pyridin-3-yl)methanol]: the concentration for half-maximal inhibition (IC50) on SIK3 amounted to 55.4 nM; on SIK1, 18 nM; on SIK2, 12.8 nM.
